From patent US10011571B2, “Preparation method for aromatic heterocyclic compound used as selective JAK3 and/or JAK1 kinase inhibitor and application of aromatic heterocyclic compound” (SHENZHEN CHIPSCREEN BIOSCIENCES, LTD., priority 2014, dated 2018) come the findings set out here.

Assay [1] concerns the target JAK3 (Homo sapiens (Human), UniProt P52333). As to the kind of experiment: Z'-LYTE enzymatic activity detection, JAK3. It counts as biochemical. The note with it: test compound 30 nM; for inhibition at 0.03 µM: read-out: JAK3 % inhibitory rate @30 nM. How it is done: (§1) The basic principle of in vitro enzymatic activity assay is based on the difference between the intensities of fluorescence signals generated at different wavelengths (445 nm and 520 nm) from the phosphorylated substrate and non-phosphorylated substrate, in which the specific fluorescence-labeled substrate is phosphorylated by the kinase. When different test compounds are added, the inhibition of kinase activity is represented as the different degrees of substrate phosphorylation, and thus as the different intensities of fluorescence signal, based on which the inhibitory activity of the compound on the kinase can be calculated. Basic detection principle is illustrated in FIG. 1.
(§2) In an enzymatic inhibitory activity detection, GST-labeled human recombinant JAK kinases, including JAK1/PV4774, JAK2/PV4210, JAK3/PV3855, TYK2/PV4790 and their corresponding specific substrates, including Tyr6 (Z′-LYTE® Kinase Assay Kit-Tyrosine 6 Peptide, JAK1/PV4122), Tyr4 (Z′-LYTE® Kinase Assay Kit-Tyrosine 4 Peptide, JAK2/PV3193), Tyr4 (Z′-LYTE® Kinase Assay Kit-Tyrosine 4 Peptide, JAK3/PV3193), Tyr3 (Z′-LYTE® Kinase Assay Kit-[…], TYK2/PV3192) are used. In all tests, development reagent A (PV3297) was used as the test agent. All materials mentioned above were purchased from Invitrogen.
(§3) (1) Preparation: kinase reaction buffer (working solution) is prepared according to the instruction; a concentration gradient of the test compound is prepared by dilution using the kinase reaction buffer (the highest compound concentration is 10 μM for JAK1, JAK2, and TYK2 detection, and 1 μM for JAK3 detection, respectively).
(§4) (2) 10 μl of reaction system, comprising 2.5 μL test compound, 5 μL kinase reaction buffer and 2.5 μL ATP solution (provided by the kit), is mixed and reaction is performed at room temperature for 1 h.
(§5) (3) Controls, including a solvent control without the test compound, a negative control without ATP and a positive control with the phosphorylated substrate, are tested together with the detection. All tests are carried out in triplicate.
(§6) (4) After the enzymatic reaction, 5 μL pre-formulated development buffer is added, and reaction is performed at room temperature for 1 h. Subsequently, the reaction is terminated by adding 5 μL stop buffer.
(§7) (5) The fluorescence signal in each well is detected by an Ascent Fluoroskan FL reader (Thermo Labsystems) at an excitation wavelength of 400 nm, and emission wavelengths of 445 nm and 520 nm. The proportion of substrate phosphorylation is obtained by reference to the fluorescence signal intensity C445/F520.
(§8) (6) The enzymatic inhibitory rate of the test compound can be calculated based on the following equation: Inhibitory rate (%)=1−the proportion of substrate phosphorylation in the detection well/the proportion of substrate phosphorylation in the solvent control well. The half-inhibitory concentration (IC50) can be calculated using an IC50 calculator based on the inhibitory rates of phosphorylation for the test compounds at different concentration gradients.
(§9) Based on the above method, the compounds described herein are enzymatically evaluated in vitro for JAKs (the concentration of the test compound is 30 nM for JAK3 and JAK2 test, and 300 nM for JAK1 test) using Xeljanz (tofacitinib citrate) as the positive control.

For assay [2], the target named is JAK1 (Homo sapiens (Human), UniProt P23458). In words: Z'-LYTE enzymatic activity detection, JAK1. The note with it: test compound 300 nM; for inhibition at 0.3 µM: read-out: JAK1 % inhibitory rate @300 nM. It is filed as biochemical. How it is done:
as §1, §2, §3, §4, §5, §6, §7, §8, §9

For assay [3], the target named is JAK2 (Homo sapiens (Human), UniProt O60674). As to the kind of experiment: Z'-LYTE enzymatic activity detection, JAK2. It is filed as biochemical. Conditions: test compound 30 nM; for inhibition at 0.03 µM: read-out: JAK2 % inhibitory rate @30 nM. How it is done:
as §1, §2, §3, §4, §5, §6, §7, §8, §9

For assay [4], the system named is CTLL-2 cells. In words: Cell growth activity assay (MTS), CTLL-2 cell model. The note with it: Mus musculus, CTLL-2, 300 nM, 24 h, read-out: CTLL-2 % growth rate @300 nM. It counts as cell-based, mouse. From the text:
(§10) MTS assay is a routine method for cell toxicity detection. The basic principle is based on the capacity of dehydrogenase in the mitochondria of living cells to reduce a novel yellow […] MTS to formazan, so that the amount of living cells is proportional to the amount of formazan product by detecting the absorbance at 490 nm (OD), thereby speculating the amount of living cells according to the OD value, and understanding the capacity of the test compound to inhibit the growth of cells or to kill the cells.
In this experiment, mouse T-cell line CTLL-2 was used. The proliferation and growth of this cell line strongly depend on IL-2, and it is commonly used to evaluate the active titer of exogenous IL-2. By inhibiting the activity of kinase JAK1/3, the proliferation of CTLL-2 can be inhibited under in vitro culture. The activation and proliferation of T-cell is also important pathological characteristics for various immunological diseases. Thus, this model is also pathologically related.
By comparing the change of absorbance generated by the cells treated by the test compounds using MTS assay, the growth inhibitory activity of the test compounds on the model cells can be realized, and thereby potential inhibitory activity of the compounds on JAK1/3 pathway can be evaluated.
(§11) MTS is performed according to routine procedure in a 96-well plate.
The model cells are inoculated into each well of the 96-well plate at an appropriate concentration (about 20,000 cells/well). After 24 h, the test compounds are added at different concentration gradients (the highest concentration of 10 μM). A solvent control (DMSO) and a negative control are also performed at the same time. Each experiment is repeated for 3 times. The cells are detected after cultured for another 24 h.
CTLL-2 is a suspended cell. After incubation, 20 μL pre-formulated mixture of MTS and PMS (in a ratio of 20:1) is directly added to each well. After incubation at 37° C. for 2 h, it is then detected by a microplate reader (490 nm).
The effect of the test compound on cell growth is calculated by comparing the change of OD values between the test well and the solvent control well, after subtracting the background of the negative control. For the test compounds at different concentration gradients, the inhibitory rates on the growth of model cells and their half-growth inhibitory concentrations (GI50) are each calculated.
Based on the above method, cytological evaluation is performed to the compounds described herein (for the detection of CTLL-2 cell, the concentration of the test compound is 300 nM; for the detection of HeLa and HUVEC cell, the concentration of the test compound is […]).

Assay [5] concerns HeLa cells. As to the kind of experiment: Cell growth activity assay (MTS), HeLa cell model. It is filed as cell-based, human. Details: activity: dose or concentration left out as unconfirmed. Conditions: Homo sapiens, HeLa, 72 h, read-out: HeLa % growth rate.
Source text: as §10
HeLa cell is a human cervical cancer cell line, and belongs to epithelial tumor cell line; HUVEC is a human umbilical vein endothelial cell, and belongs to primary endothelial cell; both types of cells express all subtypes except for JAK3.
The change of JAK kinase activity has no significant influence on other cell types except for the immune cells, and both cell models mentioned above are mainly used to evaluate whether there are any other kinase targets besides JAK kinases or there are nonselective cell toxicities.
In this experiment, a cultured cell model is incubated with the test compounds at different concentrations for a specific duration. The effect of the treatment by the test compound on the growth of cells is detected using MTS assay.
as §11
The model cells are inoculated into each well of the 96-well plate at an appropriate concentration (about 5000 cells/well). After 24 h, the test compounds are added at different concentration gradients (the highest final concentration is 40 μM). A solvent control (DMSO) and a negative control are also performed at the same time. Each experiment is repeated for 3 times. The cells are detected after cultured for another 72 h.
After all culture medium is aspirated out of the well, 100 μL fresh medium and 20 μL pre-formulated mixture of MTS and PMS (in a ratio of 20:1) are added to each well. After incubation at 37° C. for 2 h, it is then detected by a microplate reader (490 nm).
The cell growth inhibitory rate and GI50 of the test compound are calculated as above.
Based on the above method, cytological evaluation is performed to the compounds described herein (for the detection of CTLL-2 cell, the concentration of the test compound is 300 nM; […]).

Sequence of JAK3 (P52333 whole entry): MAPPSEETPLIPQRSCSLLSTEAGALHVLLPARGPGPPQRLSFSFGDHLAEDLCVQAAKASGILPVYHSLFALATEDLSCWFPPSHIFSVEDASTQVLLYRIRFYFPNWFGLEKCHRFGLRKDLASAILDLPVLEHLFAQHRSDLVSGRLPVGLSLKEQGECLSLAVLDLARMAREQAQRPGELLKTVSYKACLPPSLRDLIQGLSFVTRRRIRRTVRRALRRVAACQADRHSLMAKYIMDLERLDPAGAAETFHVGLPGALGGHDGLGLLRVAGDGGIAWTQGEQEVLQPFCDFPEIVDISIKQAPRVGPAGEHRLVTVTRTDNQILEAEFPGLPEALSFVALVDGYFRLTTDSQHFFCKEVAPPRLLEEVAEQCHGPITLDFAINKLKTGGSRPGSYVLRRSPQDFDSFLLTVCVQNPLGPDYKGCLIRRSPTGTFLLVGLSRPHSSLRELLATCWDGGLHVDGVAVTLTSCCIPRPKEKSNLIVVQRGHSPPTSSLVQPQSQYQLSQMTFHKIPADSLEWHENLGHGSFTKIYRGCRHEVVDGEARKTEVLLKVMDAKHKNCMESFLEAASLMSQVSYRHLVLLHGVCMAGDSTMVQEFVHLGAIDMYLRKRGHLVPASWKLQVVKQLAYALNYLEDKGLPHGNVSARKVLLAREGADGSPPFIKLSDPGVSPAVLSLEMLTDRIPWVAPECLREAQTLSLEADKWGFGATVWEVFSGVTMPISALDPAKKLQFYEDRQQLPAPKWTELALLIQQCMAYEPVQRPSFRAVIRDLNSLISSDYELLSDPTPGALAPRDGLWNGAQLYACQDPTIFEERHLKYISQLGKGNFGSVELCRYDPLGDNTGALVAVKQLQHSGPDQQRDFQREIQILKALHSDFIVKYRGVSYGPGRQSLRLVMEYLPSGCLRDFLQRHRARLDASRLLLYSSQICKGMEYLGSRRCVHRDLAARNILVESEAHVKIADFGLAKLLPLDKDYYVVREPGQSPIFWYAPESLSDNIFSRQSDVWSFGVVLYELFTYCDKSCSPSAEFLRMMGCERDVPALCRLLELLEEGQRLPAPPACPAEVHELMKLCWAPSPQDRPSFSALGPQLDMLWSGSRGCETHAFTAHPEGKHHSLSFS
Sequence of JAK1 (P23458 whole entry): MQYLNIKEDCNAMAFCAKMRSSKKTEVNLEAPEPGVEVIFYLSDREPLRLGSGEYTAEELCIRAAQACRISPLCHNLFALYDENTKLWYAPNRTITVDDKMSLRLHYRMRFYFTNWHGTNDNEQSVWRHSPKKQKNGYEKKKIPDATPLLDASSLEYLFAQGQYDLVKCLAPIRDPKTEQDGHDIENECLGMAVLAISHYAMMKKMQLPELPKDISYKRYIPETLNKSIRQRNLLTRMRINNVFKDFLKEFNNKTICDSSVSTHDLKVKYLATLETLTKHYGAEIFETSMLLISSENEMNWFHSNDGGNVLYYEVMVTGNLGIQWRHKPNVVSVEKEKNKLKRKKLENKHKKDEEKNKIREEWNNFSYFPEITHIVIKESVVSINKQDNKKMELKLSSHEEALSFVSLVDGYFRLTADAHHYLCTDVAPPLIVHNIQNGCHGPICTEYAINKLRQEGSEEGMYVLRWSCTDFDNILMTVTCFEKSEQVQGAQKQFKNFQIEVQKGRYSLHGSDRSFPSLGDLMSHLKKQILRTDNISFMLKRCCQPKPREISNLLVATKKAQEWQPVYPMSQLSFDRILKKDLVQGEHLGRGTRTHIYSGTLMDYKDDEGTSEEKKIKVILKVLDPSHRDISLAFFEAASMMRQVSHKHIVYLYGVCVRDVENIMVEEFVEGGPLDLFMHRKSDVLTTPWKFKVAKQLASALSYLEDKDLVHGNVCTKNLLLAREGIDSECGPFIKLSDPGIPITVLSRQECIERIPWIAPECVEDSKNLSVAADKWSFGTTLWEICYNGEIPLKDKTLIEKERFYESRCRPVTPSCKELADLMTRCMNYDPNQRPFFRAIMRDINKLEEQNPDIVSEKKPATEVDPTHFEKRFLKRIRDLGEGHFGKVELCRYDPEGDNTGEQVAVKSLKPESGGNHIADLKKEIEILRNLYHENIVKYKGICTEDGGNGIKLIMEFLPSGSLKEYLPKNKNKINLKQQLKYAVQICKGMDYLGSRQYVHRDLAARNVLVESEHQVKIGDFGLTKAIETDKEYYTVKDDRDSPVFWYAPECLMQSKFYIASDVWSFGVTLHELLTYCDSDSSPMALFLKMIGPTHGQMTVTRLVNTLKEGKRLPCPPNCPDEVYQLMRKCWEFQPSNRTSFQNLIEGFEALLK
Sequence of JAK2 (O60674 whole entry): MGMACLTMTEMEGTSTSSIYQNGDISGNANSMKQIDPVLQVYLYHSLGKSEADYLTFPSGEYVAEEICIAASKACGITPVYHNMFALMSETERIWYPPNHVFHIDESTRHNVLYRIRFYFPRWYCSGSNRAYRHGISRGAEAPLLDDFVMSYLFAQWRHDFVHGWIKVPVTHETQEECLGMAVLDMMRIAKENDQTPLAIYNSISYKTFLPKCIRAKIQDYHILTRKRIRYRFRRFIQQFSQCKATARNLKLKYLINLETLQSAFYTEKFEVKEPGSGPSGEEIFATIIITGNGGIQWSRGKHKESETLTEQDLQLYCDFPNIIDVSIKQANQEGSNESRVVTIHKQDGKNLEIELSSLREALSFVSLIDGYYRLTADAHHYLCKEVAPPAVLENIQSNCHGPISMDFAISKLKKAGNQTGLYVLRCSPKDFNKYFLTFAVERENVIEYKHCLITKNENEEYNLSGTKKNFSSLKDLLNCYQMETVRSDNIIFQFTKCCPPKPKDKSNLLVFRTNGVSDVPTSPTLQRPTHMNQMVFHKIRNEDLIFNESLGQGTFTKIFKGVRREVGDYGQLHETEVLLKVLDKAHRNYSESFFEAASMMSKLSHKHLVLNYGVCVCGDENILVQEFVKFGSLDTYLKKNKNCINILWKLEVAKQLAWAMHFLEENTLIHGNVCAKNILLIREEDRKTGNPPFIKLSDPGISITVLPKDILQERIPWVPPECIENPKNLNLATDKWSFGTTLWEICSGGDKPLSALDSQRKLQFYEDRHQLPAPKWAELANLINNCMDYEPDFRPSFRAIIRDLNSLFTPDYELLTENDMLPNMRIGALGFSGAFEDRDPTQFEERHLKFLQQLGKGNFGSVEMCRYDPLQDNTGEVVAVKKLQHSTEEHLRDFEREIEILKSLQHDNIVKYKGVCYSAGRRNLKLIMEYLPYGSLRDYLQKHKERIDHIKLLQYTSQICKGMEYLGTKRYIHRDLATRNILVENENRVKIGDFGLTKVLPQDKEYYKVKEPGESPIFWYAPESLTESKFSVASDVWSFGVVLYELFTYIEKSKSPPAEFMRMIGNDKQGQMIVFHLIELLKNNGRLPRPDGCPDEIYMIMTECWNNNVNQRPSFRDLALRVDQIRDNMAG

As to `C=CC(=O)N(C)c1cc(Nc2ncc(Cl)c(NCCCNC(=O)c3ccc(C)cc3)n2)ccc1F` [Example 83, N-(3-(5-chloro-2-(4-fluoro-3-(N-methylacrylamido)phenylamino)pyrimidinyl-4-amino)propyl)-4-methylbenzamide], in assay [1], the “JAK3 RV (ratio between the inhibitory rate of the test compound and that of Xeljanz)” value is 0.92; the inhibition at 0.03 µM is 76%. Moreover, in assay [2], the “JAK1 RV (ratio between the inhibitory rate of the test compound and that of Xeljanz)” value was 0.42; the inhibition at 0.3 µM came out at 36%. For the same molecule, in assay [3], the “JAK2 RV (ratio between the inhibitory rate of the test compound and that of Xeljanz)” value came out at 0.04; the inhibition at 0.03 µM worked out at 2%. In addition, the activity at 0.3 µM in assay [4] is 4%. Further, in assay [5], the activity was 70%.
For the molecule `C=CC(=O)N(C)c1cc(Nc2ncc(Cl)c(NCCCNC(=O)c3ccccc3)n2)ccc1F` [Example 87, N-(3-(5-chloro-2-(4-fluoro-3-(N-methylacrylamido)phenylamino)pyrimidinyl-4-amino)propyl)benzamide], in assay [1], the “JAK3 RV (ratio between the inhibitory rate of the test compound and that of Xeljanz)” value was determined as 0.99; the inhibition at 0.03 µM worked out at 82%. In assay [2], the “JAK1 RV (ratio between the inhibitory rate of the test compound and that of Xeljanz)” value amounted to 0.51; the inhibition at 0.3 µM was determined as 43%. Moreover, the inhibition at 0.03 µM in assay [3] was determined as 0%. The activity at 0.3 µM in assay [4] was found to be 3%. Besides, in assay [5], the activity worked out at 22%.
As to `C=CC(=O)N(C)c1cc(Nc2ncc(Cl)c(NCCCNC(=O)c3cccc(C(F)(F)F)c3)n2)ccc1F` [Example 91, N-(3-(5-chloro-2-(4-fluoro-3-(N-methylacrylamido)phenylamino)pyrimidinyl-4-amino)propyl)-3-trifluoromethylbenzamide], in assay [1], the “JAK3 RV (ratio between the inhibitory rate of the test compound and that of Xeljanz)” value is 0.99; the inhibition at 0.03 µM came out at 82%. In assay [2], the “JAK1 RV (ratio between the inhibitory rate of the test compound and that of Xeljanz)” value is 0.24; the inhibition at 0.3 µM was 20%. Besides, the inhibition at 0.03 µM in assay [3] was 0%. Also, the activity at 0.3 µM in assay [4] was 2%. Also, the activity in assay [5] was found to be 40%.
For `C=CC(=O)N(C)c1cc(Nc2ncc(Cl)c(NCCCNC(=O)c3cccc(C#N)c3)n2)ccc1F` [Example 95, N-(3-(5-chloro-2-(4-fluoro-3-(N-methylacrylamido)phenylamino)pyrimidinyl-4-amino)propyl)-3-cyanobenzamide], in assay [1], the “JAK3 RV (ratio between the inhibitory rate of the test compound and that of Xeljanz)” value is reported as 1.01; the inhibition at 0.03 µM amounted to 84%. In assay [2], the “JAK1 RV (ratio between the inhibitory rate of the test compound and that of Xeljanz)” value came to 0.53; the inhibition at 0.3 µM was 45%. Further, the inhibition at 0.03 µM in assay [3] was 0%. For the same molecule, the activity at 0.3 µM in assay [4] amounted to 3%. For the same molecule, the activity in assay [5] came to 3%.
With `C=CC(=O)N(C)c1cc(Nc2ncc(Cl)c(NCCCNC(=O)c3ccc(C(F)(F)F)c(F)c3)n2)ccc1F` [Example 103, N-(3-(5-chloro-2-(4-fluoro-3-(N-methylacrylamido)phenylamino)pyrimidinyl-4-amino)propyl)-3-fluoro-4-trifluoromethylbenzamide], in assay [1], the “JAK3 RV (ratio between the inhibitory rate of the test compound and that of Xeljanz)” value is 1.04; the inhibition at 0.03 µM came out at 86%. Moreover, in assay [2], the “JAK1 RV (ratio between the inhibitory rate of the test compound and that of Xeljanz)” value was found to be 0.87; the inhibition at 0.3 µM was determined as 74%. In addition, the inhibition at 0.03 µM in assay [3] is 0%. In assay [4], the activity at 0.3 µM came out at 3%. Further, the activity in assay [5] was found to be 55%.
Turning to `C=CC(=O)N(C)c1cc(Nc2ncc(Cl)c(NCCCNC(=O)c3cc(F)c(F)c(F)c3F)n2)ccc1F` [Example 107, N-(3-(5-chloro-2-(4-fluoro-3-(N-methylacrylamido)phenylamino)pyrimidinyl-4-amino)propyl)-2,3,4,5-tetrafluorobenzamide], in assay [1], the “JAK3 RV (ratio between the inhibitory rate of the test compound and that of Xeljanz)” value came to 1.01; the inhibition at 0.03 µM is 84%. In addition, in assay [2], the “JAK1 RV (ratio between the inhibitory rate of the test compound and that of Xeljanz)” value is given as 0.79; the inhibition at 0.3 µM was found to be 67%. The inhibition at 0.03 µM in assay [3] amounted to 0%. Further, the activity at 0.3 µM in assay [4] was 2%. In assay [5], the activity was 59%.
Regarding `C=CC(=O)N(C)c1cc(Nc2ncc(Cl)c(NCCCNC(=O)c3ccc(C(C)=O)cc3)n2)ccc1F` [Example 111, 4-acetyl-N-(3-(5-chloro-2-(4-fluoro-3-(N-methylacrylamido)phenylamino)pyrimidinyl-4-amino)propyl)benzamide], in assay [1], the “JAK3 RV (ratio between the inhibitory rate of the test compound and that of Xeljanz)” value is 0.99; the inhibition at 0.03 µM came out at 82%. Besides, in assay [2], the “JAK1 RV (ratio between the inhibitory rate of the test compound and that of Xeljanz)” value is recorded as 0.19; the inhibition at 0.3 µM is 16%. Moreover, in assay [3], the inhibition at 0.03 µM stood at 0%. Moreover, in assay [4], the activity at 0.3 µM was 3%. Further, in assay [5], the activity was found to be 67%.
